This is an account of results in patent US9133158B2, “Bicyclic dihydroisoquinoline-1-one derivatives” (Hoffmann-La Roche Inc., priority 2011, dated 2015).

Molecules are shown by their SMILES. pEC50: −log10 of the molar value.

One experiment has as its target T1, human CYP11B1 (Homo sapiens, UniProt P15538).
T1 construct: expressed in transfected cells
T1 sequence (P15538 25-503): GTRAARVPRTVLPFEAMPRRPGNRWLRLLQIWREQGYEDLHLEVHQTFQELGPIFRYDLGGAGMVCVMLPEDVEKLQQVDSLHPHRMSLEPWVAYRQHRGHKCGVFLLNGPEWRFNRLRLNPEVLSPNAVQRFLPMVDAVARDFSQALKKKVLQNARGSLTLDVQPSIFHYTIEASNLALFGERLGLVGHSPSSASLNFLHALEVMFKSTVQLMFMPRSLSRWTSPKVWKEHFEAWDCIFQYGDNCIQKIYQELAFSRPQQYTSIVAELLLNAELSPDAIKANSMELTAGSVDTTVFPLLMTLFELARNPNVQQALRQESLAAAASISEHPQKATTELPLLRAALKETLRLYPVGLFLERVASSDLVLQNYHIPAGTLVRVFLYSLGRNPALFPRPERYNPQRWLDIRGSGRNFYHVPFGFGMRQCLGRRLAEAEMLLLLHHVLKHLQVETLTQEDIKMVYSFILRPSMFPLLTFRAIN
Briefly: G-402 cellular enzyme assay, human CYP11B1 (cortisol release, HTRF). The class given is cell-based. The settings on record: G-402 cells, 1 μM Deoxycortisol. The method, boiled down:
(§1)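 G-402 cells stably expressing human CYP11B1 or CYP11B2 incubated 16 h in DMEM/F12 with 2.5% charcoal-treated FCS, compound, and 1 μM 11-deoxycortisol (B1) or 1 μM deoxycorticosterone (B2). Cortisol (B1) or aldosterone (B2) in supernatant measured by HTRF; EC50 from 4-parameter MMF fit.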
For orientation: In TR-FRET formats the signal depends on donor and acceptor labels being close together.

For another experiment, the target named is T2, human CYP11B2 (Homo sapiens, UniProt P19099).
T2 construct: expressed in transfected cells
T2 sequence (P19099 25-503): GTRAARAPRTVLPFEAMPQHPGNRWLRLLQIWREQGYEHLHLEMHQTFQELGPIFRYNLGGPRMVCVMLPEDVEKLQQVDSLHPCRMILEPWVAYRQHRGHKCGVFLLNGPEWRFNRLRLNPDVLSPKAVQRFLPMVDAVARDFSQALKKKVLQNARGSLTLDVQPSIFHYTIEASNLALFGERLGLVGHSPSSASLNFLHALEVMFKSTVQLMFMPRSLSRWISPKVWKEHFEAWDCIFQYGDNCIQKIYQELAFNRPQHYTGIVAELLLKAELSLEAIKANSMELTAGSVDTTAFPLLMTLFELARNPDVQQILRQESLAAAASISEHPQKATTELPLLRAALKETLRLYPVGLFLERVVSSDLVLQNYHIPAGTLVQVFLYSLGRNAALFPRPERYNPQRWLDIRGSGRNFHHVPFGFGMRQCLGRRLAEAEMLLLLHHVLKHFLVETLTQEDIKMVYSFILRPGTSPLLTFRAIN
Briefly: G-402 cellular enzyme assay, human CYP11B2 (aldosterone release, HTRF). The class given is cell-based. The settings on record: G-402 cells, 1 μM Deoxycorticosterone. The method, boiled down:
as §1

As usually defined, the pEC50 is the EC50 on a negative log10 scale, so that one unit is a factor of ten. Lower therefore signals a high EC50. Take `COc1cncc(N2CCc3c(ccc(Cl)c3F)C2=O)c1` [Example 99, 6-Chloro-5-fluoro-2-(5-methoxy-pyridin-3-yl)-3,4-dihydro-2H-isoquinolin-1-one]: the pEC50 at human CYP11B1 is 5.14; at human CYP11B2 it was 6.05.

With `O=C1c2ccc(Cl)cc2C2(CC2)N1c1cncc(CNc2cc[nH]n2)c1` [Example 386, 6′-Chloro-2′-{5-[(1H-pyrazol-3-ylamino)methyl]pyridin-3-yl}spiro [cyclopropane-1,1′-isoindol]-3′(2′H)-one], the figures for the pEC50 on human CYP11B1 and on human CYP11B2 were 6.38 and 8.22, respectively.

As to `O=C1c2ccc(Cl)cc2CCN1c1cncc(CN2CC[C@@H](O)C2)c1` [Example 147, 6-Chloro-2-[5-((R)-3-hydroxy-pyrrolidin-1-ylmethyl)-pyridin-3-yl]-3,4-dihydro-2H-isoquinolin-1-one], the results for the pEC50 at human CYP11B1 and at human CYP11B2 were 6.61 and 7.44, respectively.

In the case of `CCC1c2ccc(Cl)cc2C(=O)N1c1cncc(F)c1` (single isomer, unassigned) [Example 308, (R or S)-6-Chloro-3-ethyl-2-(5-fluoro-pyridin-3-yl)-2,3-dihydro-isoindol-1-one], the pEC50 on human CYP11B1 is 4.58; on human CYP11B2, 6.42.

In the case of `CNC(C)c1cncc(N2CCc3cc(Cl)ccc3C2=O)c1` (centres unmarked) [Example 265, 6-Chloro-2-[5-(1-methylamino-ethyl)-pyridin-3-yl]-3,4-dihydro-2H-isoquinolin-1-one], the pEC50 on human CYP11B1 was 5.30; at human CYP11B2 it was 6.36.

Consider `COc1cncc(N2C(=O)c3ccc(Cl)cc3CC2C)c1` (centres unmarked) [Example 85, 6-Chloro-2-(5-methoxy-pyridin-3-yl)-3-methyl-3,4-dihydro-2H-isoquinolin-1-one], for which the pEC50 at human CYP11B1 is 5.54; on human CYP11B2 it was 7.22.

Regarding `C[S+]([O-])c1cncc(N2CCc3cc(Cl)ccc3C2=O)c1` (centres unmarked) [Example 279, 6-Chloro-2-(5-methanesulfinyl-pyridin-3-yl)-3,4-dihydro-2H-isoquinolin-1-one], the pEC50 is 4.95 on human CYP11B1 and 6.22 at human CYP11B2.

In the case of `CS(=O)(=O)NC1CCc2c1cncc2N1CCc2cc(Cl)ccc2C1=O` (single isomer, unassigned) [Example 331, N-[(R or S)-4-(6-Chloro-1-oxo-3,4-dihydro-1H-isoquinolin-2-yl)-6,7-dihydro-5H-[2]pyrindin-7-yl]-methanesulfonamide], the negative-log EC50 (pEC50) was 4.46 on human CYP11B1 and 5.36 on human CYP11B2.

For `CCC1c2cc(Cl)ccc2C(=O)N1c1cncc2c1CCCC2NS(C)(=O)=O` (mixture of isomers) [Example 346, N-[4-(5-Chloro-3-ethyl-1-oxo-1,3-dihydro-isoindol-2-yl)-5,6,7,8-tetrahydro-isoquinolin-8-yl]-methanesulfonamide], the pEC50 at human CYP11B1 is 5.59; on human CYP11B2, 7.58.

As to `O=C1c2ccc(Cl)cc2CCN1c1cncc(Cn2ccnc2Cl)c1` [Example 176, 6-Chloro-2-[5-(2-chloro-imidazol-1-ylmethyl)-pyridin-3-yl]-3,4-dihydro-2H-isoquinolin-1-one], the pEC50 at human CYP11B1 is 7.24; on human CYP11B2 it was 8.01.

For `Cc1cc(C)n(Cc2cncc(N3CCc4cc(Cl)ccc4C3=O)c2)n1` [Example 151, 6-Chloro-2-[5-(3,5-dimethyl-pyrazol-1-ylmethyl)-pyridin-3-yl]-3,4-dihydro-2H-isoquinolin-1-one], the pEC50 on human CYP11B1 was 5.41; at human CYP11B2 it was 7.00.

With `CCc1nccn1Cc1cncc(N2CCc3cc(Cl)ccc3C2=O)c1` [Example 191, 6-Chloro-2-[5-(2-ethyl-imidazol-1-ylmethyl)-pyridin-3-yl]-3,4-dihydro-2H-isoquinolin-1-one], the pEC50 on human CYP11B1 was 5.07; at human CYP11B2, 6.40.

As for `CCC(=O)N[C@@H]1CCCc2c1cncc2N1C(=O)c2ccc(Cl)cc2[C@H]1CC` (single isomer, unassigned) [Example 354, N-[(R or S)-4-((R or S)-5-Chloro-3-ethyl-1-oxo-1,3-dihydro-isoindol-2-yl)-5,6,7,8-tetrahydro-isoquinolin-8-yl]-propionamide], the negative logarithm of the EC50 (pEC50) is 6.46 on human CYP11B1 and 7.91 on human CYP11B2.

Take `NC1CCCc2c1cncc2N1Cc2cc(Cl)ccc2C1=O` (centres unmarked) [Example 311, 2-(8-Amino-5,6,7,8-tetrahydro-isoquinolin-4-yl)-5-chloro-2,3-dihydro-isoindol-1-one]: the pEC50 is 5.19 on human CYP11B1 and 6.09 at human CYP11B2.

Take `CCC1c2ccc(Cl)cc2C(=O)N1c1cncc(F)c1` (single isomer, unassigned) [Example 307, (S or R)-6-Chloro-3-ethyl-2-(5-fluoro-pyridin-3-yl)-2,3-dihydro-isoindol-1-one]: the pEC50 was 4.81 on human CYP11B1 and 6.41 at human CYP11B2.

For `CCC(=O)NCc1cncc(N2C(=O)c3ccc(F)cc3C2(C)C)c1` [Example 398, N-[5-(6-Fluoro-1,1-dimethyl-3-oxo-1,3-dihydro-isoindol-2-yl)-pyridin-3-ylmethyl]-propionamide], the pEC50 at human CYP11B1 was 5.64; at human CYP11B2, 6.55.

`O=C(Nc1ccccc1)c1cncc(N2CCc3cc(Cl)ccc3C2=O)c1` [Example 46, 5-(6-Chloro-1-oxo-3,4-dihydro-1H-isoquinolin-2-yl)-N-phenyl-nicotinamide]: the pEC50 at human CYP11B1 is 4.86; at human CYP11B2 it was 6.16.

On to `O=C1c2ccc(Cl)cc2CCN1c1cncc(COCC(F)(F)F)c1` [Example 202, 6-Chloro-2-[5-(2,2,2-trifluoro-ethoxymethyl)-pyridin-3-yl]-3,4-dihydro-2H-isoquinolin-1-one], for which the values for the pEC50 at human CYP11B1 and at human CYP11B2 were 6.32 and 7.19, respectively.

For the compound `O=C(c1cncc(N2CCc3cc(Cl)ccc3C2=O)c1)N1CCOCC1` [Example 39, 6-Chloro-2-[5-(morpholine-4-carbonyl)-pyridin-3-yl]-3,4-dihydro-2H-isoquinolin-1-one], the values for the pEC50 at human CYP11B1 and at human CYP11B2 were 5.00 and 5.96, respectively.

As for `Nc1cncc(N2CCc3cc(Cl)ccc3C2=O)c1` [Example 17, 2-(5-Aminopyridin-3-yl)-6-chloro-3,4-dihydro-2H-isoquinolin-1-one], the pEC50 on human CYP11B1 was 4.85; on human CYP11B2, 6.22.

`O=C1c2ccc(Cl)cc2CCN1c1cncc(OC2CC2)c1` [Example 68, 6-Chloro-2-(5-cyclopropoxy-pyridin-3-yl)-3,4-dihydro-2H-isoquinolin-1-one]: the pEC50 is 6.81 at human CYP11B1 and 8.17 at human CYP11B2.

Turning to `CC1(C)c2cc(Cl)ccc2C(=O)N1c1cncc(OC(F)F)c1` [Example 131, 5-Chloro-2-(5-difluoromethoxy-pyridin-3-yl)-3,3-dimethyl-2,3-dihydro-isoindol-1-one], the pEC50 at human CYP11B1 was 6.58; at human CYP11B2, 7.92.

As to `CC(C)N1CCN(Cc2cncc(N3CCc4cc(Cl)ccc4C3=O)c2)CC1` [Example 166, 6-Chloro-2-[5-(4-isopropyl-piperazin-1-ylmethyl)-pyridin-3-yl]-3,4-dihydro-2H-isoquinolin-1-one], the values for the pEC50 on human CYP11B1 and on human CYP11B2 were 7.02 and 7.85, respectively.

As to `CCC(=O)NC1CCCc2c1cncc2N1CCc2cc(Cl)ccc2C1=O` (centres unmarked) [Example 29, N-(6-Chloro-1-oxo-3,4,5′,6′,7′,8′-hexahydro-1H-[2,4′]biisoquinolinyl-8′-yl)-propionamide], the pEC50 at human CYP11B1 was 4.89; at human CYP11B2 it was 6.50.

For the compound `O=C1c2ccc(Cl)cc2CCN1c1cncc(CNc2ccc(Cl)cc2)c1` [Example 260, 6-Chloro-2-{5-[(4-chloro-phenylamino)-methyl]-pyridin-3-yl}-3,4-dihydro-2H-isoquinolin-1-one], the pEC50 was 6.46 on human CYP11B1 and 6.33 at human CYP11B2.

Consider `O=C1c2ccc(Cl)cc2CCN1c1cncc(Cn2cccn2)c1` [Example 160, 6-Chloro-2-(5-pyrazol-1-ylmethyl-pyridin-3-yl)-3,4-dihydro-2H-isoquinolin-1-one], for which the pEC50 at human CYP11B1 is 6.38; on human CYP11B2, 7.44.

For the compound `O=C1c2ccc(Cl)cc2CCN1c1cncc(Cc2ccc(N3CCOCC3)nc2)c1` [Example 207, 6-Chloro-2-[5-(6-morpholin-4-yl-pyridin-3-ylmethyl)-pyridin-3-yl]-3,4-dihydro-2H-isoquinolin-1-one], the pEC50 at human CYP11B1 is 7.74; at human CYP11B2, 8.55.

Consider `O=C1c2ccc(Cl)cc2CCN1c1cncc(NS(=O)(=O)c2ccccc2)c1` [Example 219, N-[5-(6-Chloro-1-oxo-3,4-dihydro-1H-isoquinolin-2-yl)-pyridin-3-yl]-benzenesulfonamide], for which the pEC50 was 4.76 at human CYP11B1 and 5.65 on human CYP11B2.
